Test results published in patent US20100063282A1, “Glucocorticoid Mimetics, Methods of Making Them, Pharmaceutical Compositions, and Uses Thereof” (BOEHRINGER INGELHEIM INTERNATIONAL GMBH, priority 2007, published 2010).

How the values were obtained:
[1] = target: T1, human glucocorticoid receptor (GR) complex (Homo sapiens, UniProt P04150); test: Glucocorticoid receptor competitive binding assay (fluorescence polarization); settings: competition with TAMRA-labeled dexamethasone, GR-containing baculovirus lysate, 1 hour at room temperature
T1 construct: made in house; host or cells: insect cells (baculovirus expression); used as crude lysate
T1 sequence (P04150 1-777): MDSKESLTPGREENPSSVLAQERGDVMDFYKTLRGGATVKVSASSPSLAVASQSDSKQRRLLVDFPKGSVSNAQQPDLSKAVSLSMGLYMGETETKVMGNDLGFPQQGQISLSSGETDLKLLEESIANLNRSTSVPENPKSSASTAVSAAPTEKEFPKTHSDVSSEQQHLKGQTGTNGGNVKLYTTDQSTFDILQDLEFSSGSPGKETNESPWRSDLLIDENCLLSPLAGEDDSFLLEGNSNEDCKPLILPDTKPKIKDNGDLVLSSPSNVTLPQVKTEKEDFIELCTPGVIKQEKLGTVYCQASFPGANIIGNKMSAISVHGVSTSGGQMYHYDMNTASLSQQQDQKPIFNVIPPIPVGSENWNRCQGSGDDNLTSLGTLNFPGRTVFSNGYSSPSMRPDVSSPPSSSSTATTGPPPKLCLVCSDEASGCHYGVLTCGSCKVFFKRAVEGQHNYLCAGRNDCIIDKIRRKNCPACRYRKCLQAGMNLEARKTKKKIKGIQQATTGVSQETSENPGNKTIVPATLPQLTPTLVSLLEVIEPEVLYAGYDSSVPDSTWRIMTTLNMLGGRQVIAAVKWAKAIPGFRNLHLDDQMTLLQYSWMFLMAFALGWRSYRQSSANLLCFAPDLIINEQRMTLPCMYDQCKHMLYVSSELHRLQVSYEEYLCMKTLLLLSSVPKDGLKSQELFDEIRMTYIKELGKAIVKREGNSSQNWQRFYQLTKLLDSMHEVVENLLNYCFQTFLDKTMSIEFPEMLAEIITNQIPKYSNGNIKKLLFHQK
Procedure: Compounds of the invention were evaluated for binding to the steroid receptor by a fluorescence polarization competitive binding assay. Detailed descriptions for preparation of recombinant glucocorticoid receptor (GR) complex used in the assay is described in U.S. Patent Application Publication No. US 2003/0017503, filed May 20, 2002, and incorporated herein by reference in its entirety. Preparation of the tetramethylrhodamine (TAMRA)-labeled dexamethasone probe was accomplished using a standard literature procedure (M. Pons et al., J. Steroid Biochem., 1985, 22, pp. 267-273).
The affinity of the probe for the steroid receptor was then determined in a titration experiment. The fluorescence polarization value of the probe in assay buffer was measured on an SLM-8100 fluorometer using the excitation and emission maximum values described above. Aliquots of expression vector lysate were added and fluorescence polarization was measured after each addition until no further change in polarization value was observed. Non-linear least squares regression analysis was used to calculate the dissociation constant of the probe from the polarization values obtained for lysate binding to the probe.
This assay uses fluorescence polarization (FP) to quantitate the ability of test compounds to compete with tetramethylrhodamine (TAMRA)-labeled dexamethasone for binding to a human glucocorticoid receptor (GR) complex prepared from an insect expression system. The assay buffer was: 10 mM TES, 50 mM KCl, 20 mM Na2MoO4.2H2O, 1.5 mM EDTA, 0.04% w/v CHAPS, 10% v/v glycerol, 1 mM dithiothreitol, pH 7.4. Test compounds were dissolved to 1 mM in neat DMSO and then further diluted to 10× assay concentration in assay buffer supplemented with 10% v/v DMSO. Test compounds were serially diluted at 10× assay concentrations in 10% DMSO-containing buffer in 96-well polypropylene plates. Binding reaction mixtures were prepared in 96-well black Dynex microtiter plates by sequential addition of the following assay components to each well: 15 μL of 10× test compound solution, 85 μL of GR-containing baculovirus lysate diluted 1:170 in assay buffer, and 50 μL of 15 nM TAMRA-labeled dexamethasone. Positive controls were reaction mixtures containing no test compound; negative controls (blanks) were reaction mixtures containing 0.7 μM to 2 μM dexamethasone. The binding reactions were incubated for 1 hour at room temperature and then read for fluorescence polarization in the LJL Analyst set to 550 nm excitation and 580 nm emission, with the Rhodamine 561 dichroic mirror installed. IC50 values were determined by iterative non-linear curve fitting of the FP signal data to a 4-parameter logistic equation.

glucocorticoid receptor = test: Glucocorticoid receptor function, one or more of the above assays; assay type: cell-based; settings: in one or more of the above assays, assay not specified
Procedure: Dexamethasone, a synthetic ligand to the glucocorticoid receptor (GR), induces expression of aromatase in human foreskin fibroblast cells. The activity of aromatase is measured by the conversion of testosterone to estradiol in culture media.
Human foreskin fibroblast cells (ATCC Cat. No. CRL-2429, designation CCD112SK) are plated on 96 well plates at 50,000 cells per well 5 days before use, in Iscove's Modified Dulbecco's Media (GibcoBRL Life Technologies Cat No. 12440-053) supplemented with 10% charcoal filtered FBS (Clonetech Cat No. SH30068) and Gentamycin (GibcoBRL Life Technologies Cat. No. 15710-064). On the day of the experiment, the media in the wells is replaced with fresh media. Cells are treated with test compounds to final concentrations of 10^−5 M to 10^−8 M, and testosterone to a final concentration of 300 ng/mL. Each well has a total volume of 100 μL. Samples are made in duplicates. […] Estradiol in the supernatant is measured using ELISA kits for estradiol (made by ALPCO, obtained from American Laboratory Products Cat. No. 020-DR-2693) according to the manufacture's instruction. […] The extent of aromatase induction by test compounds is expressed as a relative percentage to dexamethasone. […]
Human foreskin fibroblast cells (ATCC Cat. No. CRL-2429) are plated on 96 well plates at 5,000 cells per well the day before use, in Iscove's Modified Dulbecco's Media (GibcoBRL Life Technologies Cat. No. 12440-053) supplemented with 10% charcoal filtered FBS (Clonetech Cat. No. SH30068) and Gentamycin (GibcoBRL Life Technologies Cat. No. 15710-064). […] IL-6 levels in the supernatants are determined by the ELISA kits for IL-6 (MedSystems Diagnostics GmbH, Vienna, Austria, Cat. No. BMS213TEN) according to manufacture's instructions. […]
H4-II-E-C3 cells were incubated overnight in 96 well plates (20,000 cells/100 μL/well) in MEM medium containing 10% heat inactivated FBS and 1% nonessential amino acids. […] After 18 hours, the cells were lysed in a buffer containing 0.1% Triton X-100 and the TAT activity was measured in a photometric assay using tyrosine and alpha-ketoglutarate as substrates. […]

IC50 [1] [µM]	activity as an agonist of the glucocorticoid receptor function (glucocorticoid receptor)	Compound
≤ 0.1	–	CC[C@@H](CNc1cccc2cc[nH]c12)NS(=O)(=O)c1c(C)cc(C)cc1C [N—{(S)-1-[(1H-Indol-7-ylamino)methyl]propyl}-2,4,6-trimethylbenzenesulfonamide]
≤ 0.1	–	Cc1cc(C)c(S(=O)(=O)NC(CSc2ccccn2)C(F)(F)F)c(C)c1 (centres unmarked) [2,4,6-Trimethyl-N-[2,2,2-trifluoro-1-(pyridin-2-ylsulfanylmethyl)ethyl]benzenesulfonamide]
≤ 0.1	–	Cc1cc(C)c(S(=O)(=O)NC(COc2cccc3cnccc23)C(F)(F)F)c(C)c1 (centres unmarked) [2,4,6-Trimethyl-N-[2,2,2-trifluoro-1-(isoquinolin-5-yloxymethyl)ethyl]benzenesulfonamide]
≤ 0.1	–	Cc1cc(C)c(S(=O)(=O)NC(CSc2nc(C)cc(C(F)(F)F)c2C#N)C(F)(F)F)c(C)c1 (centres unmarked) [N-[1-(3-Cyano-6-methyl-4-trifluoromethylpyridin-2-ylsulfanylmethyl)-2,2,2-trifluoroethyl]-2,4,6-trimethylbenzenesulfonamide]
≤ 0.1	–	Cc1cc(C)c(S(=O)(=O)NC(CSc2ccc([N+](=O)[O-])cn2)C(F)(F)F)c(C)c1 (centres unmarked) [2,4,6-Trimethyl-N-[2,2,2-trifluoro-1-(5-nitropyridin-2-ylsulfanylmethyl)ethyl]benzenesulfonamide]
≤ 0.1	–	Cc1cc(C)c(S(=O)(=O)NC(CSc2ncccc2C(F)(F)F)C(F)(F)F)c(C)c1 (centres unmarked) [2,4,6-Trimethyl-N-[2,2,2-trifluoro-1-(3-trifluoromethylpyridin-2-ylsulfanylmethyl)ethyl]benzenesulfonamide]
≤ 0.1	shown activity as an agonist	CC[C@@H](CNc1cccc2[nH]ccc12)NS(=O)(=O)c1c(C)cc(C)cc1C [N—{(S)-1-[(1H-Indol-4-ylamino)methyl]propyl}-2,4,6-trimethylbenzenesulfonamide]
≤ 0.1	–	Cc1cc(C)c(S(=O)(=O)NC(COc2cccc3ncccc23)C(F)(F)F)c(C)c1 (centres unmarked) [2,4,6-Trimethyl-N-[2,2,2-trifluoro-1-(quinolin-5-yloxymethyl)ethyl]benzenesulfonamide]
≤ 0.1	–	Cc1cc(C)c(S(=O)(=O)NC(CNc2cccc3ncccc23)C(F)(F)F)c(C)c1 (centres unmarked) [2,4,6-Trimethyl-N-[2,2,2-trifluoro-1-(quinolin-5-ylaminomethyl)ethyl]benzenesulfonamide]
≤ 0.1	–	Cc1cc(C)c(S(=O)(=O)NC(CNc2cccc3ccc(C)nc23)C(F)(F)F)c(C)c1 (centres unmarked) [2,4,6-Trimethyl-N-{2,2,2-trifluoro-1-[(2-methylquinolin-8-ylamino)methyl]ethyl}benzenesulfonamide]
≤ 0.1	–	Cc1cc(C)c(S(=O)(=O)NC(CNc2cccc3cnccc23)C(F)(F)F)c(C)c1 (centres unmarked) [2,4,6-Trimethyl-N-[2,2,2-trifluoro-1-(isoquinolin-5-ylaminomethyl)ethyl]benzenesulfonamide]
≤ 0.1	shown activity as an agonist	CC[C@@H](CNc1ccc2c(cnn2-c2ccc(F)cc2)c1)NS(=O)(=O)c1c(N)cc(Cl)cc1Cl [2-Amino-4,6-dichloro-N—((S)-1-{[1-(4-fluorophenyl)-1H-indazol-5-ylamino]methyl}propyl)benzenesulfonamide]
≤ 0.1	–	CC[C@@H](CNc1ccc2c(cnn2-c2ccc(F)cc2)c1)NS(=O)(=O)c1c(C)cc(C)cc1C [N—((S)-1-{[1-(4-Fluorophenyl)-1H-indazol-5-ylamino]methyl}propyl)-2,4,6-trimethylbenzenesulfonamide]
≤ 0.1	shown activity as an agonist	CC[C@@H](CNc1cccc2[nH]ccc12)NS(=O)(=O)c1c(N)cc(Cl)cc1Cl [2-Amino-4,6-dichloro-N—{(S)-1-[(1H-indol-4-ylamino)methyl]propyl}benzenesulfonamide]
